From patent publication EP2876156A1 (COMMISSARIAT A L'ENERGIE ATOMIQUE ET AUX ENERGIES …, priority 2013, dated 2015)

Columns and labels:
Type in all cases: biochemical
ENZ4 SEQ ID NO:4 = target: T1, ENZ4 SEQ ID NO:4 (Catenulispora acidiphila, UniProt C7Q942); assay: Substrate selectivity screening of hydroxylase (conversion by HPLC after Fmoc-Cl derivatization); details: enzyme 0.08 mg/mL, molar ratio α-ketoglutarate/substrate 15/10, Hepes buffer 50 mM pH 7,5, Mohr's salt 1mM, without sodium ascorbate, room temperature, three hours
T1 construct: His6 (hexahistidine, inserted after the initial methionine) (N); made in house; host or cells: E. coli BL21(DE3) plysE
T1 sequence (C7Q942 1-343): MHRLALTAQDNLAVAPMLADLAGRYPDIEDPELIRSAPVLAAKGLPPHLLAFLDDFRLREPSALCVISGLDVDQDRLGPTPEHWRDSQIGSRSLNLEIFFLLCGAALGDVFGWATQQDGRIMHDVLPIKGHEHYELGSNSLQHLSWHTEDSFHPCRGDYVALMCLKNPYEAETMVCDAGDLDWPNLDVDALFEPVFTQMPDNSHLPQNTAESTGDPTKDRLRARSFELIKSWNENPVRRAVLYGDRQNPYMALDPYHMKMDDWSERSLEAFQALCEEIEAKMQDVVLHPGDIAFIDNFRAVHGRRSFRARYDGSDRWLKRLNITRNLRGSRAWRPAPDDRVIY
Procedure: (§1) Enzymatic reaction medium (0.2 µmole, leq.), borate buffer 0,2M pH 7.7 (80 µL) and Fmoc-Cl solution7.5 mM in acetone (100 µL, 0.75 µmole, 3.75 eq) were hand shaked in a closed 1.50 mL eppendorf for one minute. The aqueous layer was extracted with petroleum ether (3*1 mL) to eliminate excess of Fmoc-Cl. 70 µL of the aqueous phase were withdrawn, diluted with 70 µL of acetonitrile and injected into the HPLC. For substrates with two amine functions, 100 µL of Fmoc-Cl solution 15 mM were used.
(§2) Conditions for HPLC analysis: Atlantis® T3 (3 µm 4.5*150 mm) at 35°C with the gradient 50-86% eluent B (MeCN + 0.1% TFA) and eluent A (H2O + 0.1% TFA) in 20 min at 1 mL/min.
(§3) Enzymes (0.08 mg/mL) were screened against substrates (molar ratio α-ketoglutarate/substrate 15/10) in Hepes buffer 50 mM pH 7,5, with Mohr's salt at 1mM and without sodium ascorbate, at room temperature for three hours. The potential conversions of the substrates were determined by HPLC after Fmoc-Cl derivatization as section III here above.

ENZ1 SEQ ID N°1 = target: T2, ENZ1 SEQ ID N°1 (Catenulispora acidiphila, UniProt C7QJ42); assay: as above; details: enzyme 0.08 mg/mL, molar ratio α-ketoglutarate/substrate 15/10, Hepes buffer 50 mM pH 7,5, Mohr's salt 1mM, without sodium ascorbate, room temperature, three hours
T2 construct: His6 (hexahistidine, inserted after the initial methionine) (N); made in house; host or cells: E. coli BL21(DE3) plysE
T2 sequence (C7QJ42 1-358): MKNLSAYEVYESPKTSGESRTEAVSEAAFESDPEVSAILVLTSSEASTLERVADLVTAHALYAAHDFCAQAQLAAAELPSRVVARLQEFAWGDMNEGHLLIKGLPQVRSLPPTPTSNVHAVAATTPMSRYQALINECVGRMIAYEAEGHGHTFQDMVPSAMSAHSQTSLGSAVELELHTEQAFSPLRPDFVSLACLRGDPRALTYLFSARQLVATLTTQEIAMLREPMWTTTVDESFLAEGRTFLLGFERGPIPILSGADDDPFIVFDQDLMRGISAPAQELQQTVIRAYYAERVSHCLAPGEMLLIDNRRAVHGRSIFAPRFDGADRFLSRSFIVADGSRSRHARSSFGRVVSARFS
Procedure: as §1, §2, §3

ENZ5 (SEQ ID NO:9) = target: T3, ENZ5 (SEQ ID NO:9) (Niastella koreensis, UniProt G8T8D0); assay: Hydroxylation capability, HPLC analysis of reaction media after derivatization
T3 construct: His6 (hexahistidine, inserted after the initial methionine) (N); made in house; host or cells: E. coli BL21(DE3) plysE
T3 sequence (G8T8D0 1-371): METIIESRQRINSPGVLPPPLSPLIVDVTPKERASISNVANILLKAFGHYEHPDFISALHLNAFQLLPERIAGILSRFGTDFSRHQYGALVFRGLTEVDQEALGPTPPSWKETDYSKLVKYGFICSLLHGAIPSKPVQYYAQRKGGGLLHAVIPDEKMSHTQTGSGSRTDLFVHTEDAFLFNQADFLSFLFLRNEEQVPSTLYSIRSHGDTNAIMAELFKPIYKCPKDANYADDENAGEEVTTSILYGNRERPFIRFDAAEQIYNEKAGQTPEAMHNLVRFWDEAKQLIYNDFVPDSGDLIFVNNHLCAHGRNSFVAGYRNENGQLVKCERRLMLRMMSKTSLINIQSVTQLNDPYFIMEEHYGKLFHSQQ
Procedure: as §3
(§4) The hydroxylation capability of two other enzymes, namely ENZ6 (SEQ ID NO:10) and ENZ5 (SEQ ID NO:9) were also assessed. The amino sequence of ENZ6 has 79% of amino acid identity with SEQ ID NO:2 of ENZ2 while the amino sequence of ENZ5 has 72% of amino acid identity with SEQ ID NO:3 of ENZ3. […] As shown in part VI, ENZ6 and ENZ5 provide (4R)-hydroxy-L-lysine from L-lysine similarly to ENZ2 and ENZ3. Thus ENZ6 and ENZ5 are likely to have the same substrate selectivity and provide similar products as ENZ2 and ENZ3.

ENZ6 (SEQ ID NO:10) = target: T4, ENZ6 (SEQ ID NO:10) (Flavobacterium sp., UniProt J3BZS6); assay: as above
T4 construct: His6 (hexahistidine, inserted after the initial methionine) (N); made in house; host or cells: E. coli BL21(DE3) plysE
T4 sequence (J3BZS6 whole entry): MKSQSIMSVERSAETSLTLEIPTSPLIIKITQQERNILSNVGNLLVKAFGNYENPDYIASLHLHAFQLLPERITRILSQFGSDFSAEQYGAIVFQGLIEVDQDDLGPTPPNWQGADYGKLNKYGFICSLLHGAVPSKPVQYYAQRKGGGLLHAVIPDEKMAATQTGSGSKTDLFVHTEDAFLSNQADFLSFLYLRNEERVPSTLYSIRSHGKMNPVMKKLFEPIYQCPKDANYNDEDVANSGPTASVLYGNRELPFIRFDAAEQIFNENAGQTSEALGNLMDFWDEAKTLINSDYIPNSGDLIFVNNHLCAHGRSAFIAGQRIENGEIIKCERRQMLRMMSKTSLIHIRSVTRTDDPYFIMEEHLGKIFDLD
Procedure: as §3, §4

ENZ2 SEQ ID NO:2 = target: T5, ENZ2 SEQ ID NO:2 (Flavobacterium johnsoniae, UniProt A5FF23); details: enzyme 0.08 mg/mL, molar ratio α-ketoglutarate/substrate 15/10, Hepes buffer 50 mM pH 7,5, Mohr's salt 1mM, without sodium ascorbate, room temperature, three hours
T5 construct: His6 (hexahistidine, inserted after the initial methionine) (N); made in house; host or cells: E. coli BL21(DE3) plysE
T5 sequence (A5FF23 1-370): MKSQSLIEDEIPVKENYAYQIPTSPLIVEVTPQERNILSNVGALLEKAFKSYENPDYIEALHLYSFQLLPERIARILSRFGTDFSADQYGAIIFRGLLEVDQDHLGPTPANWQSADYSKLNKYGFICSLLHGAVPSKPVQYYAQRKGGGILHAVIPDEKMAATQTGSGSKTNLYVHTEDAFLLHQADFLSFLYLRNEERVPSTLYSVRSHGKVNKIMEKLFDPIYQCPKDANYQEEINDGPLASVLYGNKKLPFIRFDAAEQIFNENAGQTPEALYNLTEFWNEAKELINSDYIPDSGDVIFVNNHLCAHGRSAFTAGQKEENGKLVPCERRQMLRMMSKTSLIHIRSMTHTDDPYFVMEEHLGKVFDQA
Procedure: as §1, §2, §3

ENZ3 SEQ ID NO:3 = target: T6, ENZ3 SEQ ID NO:3 (Chitinophaga pinensis, UniProt C7PLM6); details: enzyme 0.08 mg/mL, molar ratio α-ketoglutarate/substrate 15/10, Hepes buffer 50 mM pH 7,5, Mohr's salt 1mM, without sodium ascorbate, room temperature, three hours
T6 construct: His6 (hexahistidine, inserted after the initial methionine) (N); made in house; host or cells: E. coli BL21(DE3) plysE
T6 sequence (C7PLM6 1-382): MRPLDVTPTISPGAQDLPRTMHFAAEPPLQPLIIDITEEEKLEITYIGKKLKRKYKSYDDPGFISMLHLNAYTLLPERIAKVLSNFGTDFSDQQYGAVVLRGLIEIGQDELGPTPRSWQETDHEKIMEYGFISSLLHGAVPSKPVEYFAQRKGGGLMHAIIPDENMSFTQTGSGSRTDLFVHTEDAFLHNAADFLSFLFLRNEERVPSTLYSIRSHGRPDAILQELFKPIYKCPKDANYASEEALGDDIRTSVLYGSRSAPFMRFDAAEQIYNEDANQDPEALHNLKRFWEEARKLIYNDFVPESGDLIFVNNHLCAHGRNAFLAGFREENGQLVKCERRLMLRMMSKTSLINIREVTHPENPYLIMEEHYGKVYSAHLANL
Procedure: as §1, §2, §3

NCCCC[C@H](N)C(=O)O [L-lysine]
potential conversions of the substrates, ENZ4 SEQ ID NO:4 (ENZ4 SEQ ID NO:4): negative
potential conversions of the substrates, ENZ1 SEQ ID N°1 (ENZ1 SEQ ID N°1): positive
hydroxylation capability of ENZ5 (ENZ5 (SEQ ID NO:9)): capable of hydroxylating
hydroxylation capability of ENZ6 (ENZ6 (SEQ ID NO:10)): capable of hydroxylating
potential conversions of the substrates, ENZ2 SEQ ID NO:2 (ENZ2 SEQ ID NO:2): positive
potential conversions of the substrates, ENZ3 SEQ ID NO:3 (ENZ3 SEQ ID NO:3): positive
